# Measurements reported in ChEMBL document CHEMBL4699440, “Comprehensive review on the anti-bacterial activity of 1,2,3-triazole hybrids” (Eur J Med Chem, 2019).
# Legend:
# Escherichia coli = test: Antibacterial activity against Escherichia coli ATCC 25922 incubated for 16 to 18 hrs by serial plate dilution method; type: functional; conditions: time hrs 16-18
# Staphylococcus aureus [1] = test: Antibacterial activity against methicillin-resistant Staphylococcus aureus ATCC 25923 incubated for 16 to 18 hrs by serial plate dilution method; type: functional; conditions: time hrs 16-18
# Pseudomonas aeruginosa = test: Antibacterial activity against Pseudomonas aeruginosa ATCC 27853 incubated for 16 to 18 hrs by serial plate dilution method; type: functional; conditions: time hrs 16-18
# Klebsiella pneumoniae = test: Antibacterial activity against Klebsiella pneumoniae incubated for 16 to 18 hrs by serial plate dilution method; type: functional; conditions: time hrs 16-18
# Aspergillus flavus = test: Antifungal activity against Aspergillus flavus NCIM 524 incubated for 3 to 4 days by serial plate dilution method; type: functional; conditions: time day 3-4
# Aspergillus fumigatus = test: Antifungal activity against Aspergillus fumigatus NCIM 902 incubated for 3 to 4 days by serial plate dilution method; type: functional; conditions: time day 3-4
# Talaromyces marneffei = test: Antifungal activity against Penicillium marneffei incubated for 3 to 4 days by serial plate dilution method; type: functional; conditions: time day 3-4
# [2] = test system: Trichophyton mentagrophytes; test: Antifungal activity against Trichophyton mentagrophytes incubated for 3 to 4 days by serial plate dilution method; type: functional; conditions: time day 3-4
# Staphylococcus aureus [3] = test: Antibacterial activity against Staphylococcus aureus MTCC 96 incubated for 24 hrs by macrodilution tube method; type: functional
# Bacillus cereus [4] = test: Antibacterial activity against Bacillus cereus MTCC 430 incubated for 24 hrs by macrodilution tube method; type: functional
# Bacillus cereus [5] = test: Antibacterial activity against Bacillus cereus; type: functional
# Staphylococcus aureus [6] = test: Antibacterial activity against Staphylococcus aureus; type: functional
# KB = test: Cytotoxicity against human KB cells; type: cell-based; conditions: Homo sapiens, KB
Structure (SMILES),MIC (Escherichia coli) [µg/mL],MIC (Staphylococcus aureus [1]) [µg/mL],MIC (Pseudomonas aeruginosa) [µg/mL],MIC (Klebsiella pneumoniae) [µg/mL],MIC (Aspergillus flavus) [µg/mL],MIC (Aspergillus fumigatus) [µg/mL],MIC (Talaromyces marneffei) [µg/mL],MIC [2] [µg/mL],MIC (Staphylococcus aureus [3]) [µg/mL],MIC (Bacillus cereus [4]) [µg/mL],MIC (Bacillus cereus [5]) [µg/mL],MIC (Staphylococcus aureus [6]) [µg/mL],IC50 (KB) [µg/mL]
Cc1c(C(=O)N/N=C/c2ccccc2O)nnn1-c1cc(C(F)(F)F)nc2c(C(F)(F)F)cccc12,6.25,6.25,6.25,6.25,6.25,6.25,6.25,6.25,,,,,
COc1ccc(/C=N/NC(=O)c2nnn(-c3cc(C(F)(F)F)nc4c(C(F)(F)F)cccc34)c2C)c(OC)c1OC,6.25,6.25,6.25,6.25,6.25,6.25,6.25,6.25,,,,,
Cc1ccc(C2C3=C(CCCC3=O)Oc3cc4ccc(OCc5cn(-c6ccnc7cc(Cl)ccc67)nn5)cc4cc32)cc1 (centres undefined),,,,,,,,,16,16,,,
COc1ccc(/C=N/NC(=O)c2nnn(-c3cc(C(F)(F)F)nc4c(C(F)(F)F)cccc34)c2C)cc1OC,6.25,6.25,6.25,6.25,6.25,6.25,6.25,6.25,,,,,
CC1(C)CC(=O)C2=C(C1)Oc1cc3ccc(OCc4cn(-c5ccnc6cc(Cl)ccc56)nn4)cc3cc1C2c1cccc2ccccc12 (centres undefined),,,,,,,,,16,16,,,
Cc1c(C(=O)N/N=C/c2cccnc2)nnn1-c1cc(C(F)(F)F)nc2c(C(F)(F)F)cccc12,6.25,6.25,6.25,6.25,6.25,6.25,6.25,6.25,,,,,
COc1ccc(C2C3=C(CC(C)(C)CC3=O)Oc3cc4ccc(OCc5cn(-c6ccnc7cc(Cl)ccc67)nn5)cc4cc32)cc1 (centres undefined),,,,,,,,,16,16,,,
Cc1c(C(=O)N/N=C/c2ccccc2)nnn1-c1cc(C(F)(F)F)nc2c(C(F)(F)F)cccc12,6.25,6.25,6.25,6.25,6.25,6.25,6.25,6.25,,,,,
COc1ccc2cc(/C=N/NC(=O)c3nnn(-c4cc(C(F)(F)F)nc5c(C(F)(F)F)cccc45)c3C)ccc2c1,6.25,6.25,6.25,6.25,6.25,6.25,6.25,6.25,,,,,
CC1(C)CC(=O)C2=C(C1)Oc1cc3ccc(OCc4cn(-c5ccnc6cc(Cl)ccc56)nn4)cc3cc1C2c1ccc([N+](=O)[O-])cc1 (centres undefined),,,,,,,,,16,16,,,
Cc1c(C(=O)N/N=C/c2ccc([N+](=O)[O-])cc2)nnn1-c1cc(C(F)(F)F)nc2c(C(F)(F)F)cccc12,6.25,6.25,6.25,6.25,6.25,6.25,6.25,6.25,,,,,
CC1(C)CC(=O)C2=C(C1)Oc1cc3ccc(OCc4cn(-c5ccnc6cc(Cl)ccc56)nn4)cc3cc1C2c1ccc(Br)cc1 (centres undefined),,,,,,,,,16,16,,,
Cc1ccsc1/C=N/NC(=O)c1nnn(-c2cc(C(F)(F)F)nc3c(C(F)(F)F)cccc23)c1C,6.25,6.25,6.25,6.25,6.25,6.25,6.25,6.25,,,,,
CC1(C)CC(=O)C2=C(C1)Oc1cc3ccc(OCc4cn(-c5ccnc6cc(Cl)ccc56)nn4)cc3cc1C2c1ccc(F)cc1 (centres undefined),,,,,,,,,16,16,,,
COc1ccc(/C=N/NC(=O)c2nnn(-c3cc(C(F)(F)F)nc4c(C(F)(F)F)cccc34)c2C)cc1,6.25,6.25,6.25,6.25,6.25,6.25,6.25,6.25,,,,,
CC1(C)CC(=O)C2=C(C1)Oc1cc3ccc(OCc4cn(-c5ccnc6cc(Cl)ccc56)nn4)cc3cc1C2c1ccc(Cl)cc1 (centres undefined),,,,,,,,,16,16,,,
COc1cccc(/C=N/NC(=O)c2nnn(-c3cc(C(F)(F)F)nc4c(C(F)(F)F)cccc34)c2C)c1O,6.25,6.25,6.25,6.25,6.25,6.25,6.25,6.25,,,,,
O=C1CCCC2=C1C(c1cccc3ccccc13)c1cc3cc(OCc4cn(-c5ccnc6cc(Cl)ccc56)nn4)ccc3cc1O2 (centres undefined),,,,,,,,,16,16,,,
COc1cccc(/C=N/NC(=O)c2nnn(-c3cc(C(F)(F)F)nc4c(C(F)(F)F)cccc34)c2C)c1,6.25,6.25,6.25,6.25,6.25,6.25,6.25,6.25,,,,,
COc1ccc(/C=N/NC(=O)c2nnn(-c3cc(C(F)(F)F)nc4c(C(F)(F)F)cccc34)c2C)c([N+](=O)[O-])c1OC,6.25,6.25,6.25,6.25,6.25,6.25,6.25,6.25,,,,,
O=C1CCCC2=C1C(c1ccccc1)c1cc3cc(OCc4cn(-c5ccnc6cc(Cl)ccc56)nn4)ccc3cc1O2 (centres undefined),,,,,,,,,16,16,,,
CC(C)c1ccc(C2C3=C(CCCC3=O)Oc3cc4ccc(OCc5cn(-c6ccnc7cc(Cl)ccc67)nn5)cc4cc32)cc1 (centres undefined),,,,,,,,,16,16,,,
Cc1ccc(C2C3=C(CC(C)(C)CC3=O)Oc3cc4ccc(OCc5cn(-c6ccnc7cc(Cl)ccc67)nn5)cc4cc32)cc1 (centres undefined),,,,,,,,,16,16,,,
CC(C)C[C@H](NC(=O)CNC(=O)C(C)(C)NC(=O)[C@@H](NC(=O)C(C)(C)NC(=O)[C@H](CCC(N)=O)NC(=O)[C@H](C)NC(=O)C(C)(C)NC(=O)[C@H](C)NC(=O)C(C)(C)NC(=O)[C@@H]1CCN(C(=O)C(C)(C)n2cc(-c3ccc(C(F)(F)F)cc3)nn2)C1)C(C)C)C(=O)NC(C)(C)C(=O)N1CCC[C@@H]1C(=O)N[C@H](C(=O)NC(C)(C)C(=O)NC(C)(C)C(=O)N[C@@H](CCC(N)=O)C(=O)N[C@@H](CCC(N)=O)C(=O)N[C@H](CO)Cc1ccccc1)C(C)C,,,,,,,,,,,12.5,12.5,2.9
O=C1CCCC2=C1C(c1ccc(Br)cc1)c1cc3cc(OCc4cn(-c5ccnc6cc(Cl)ccc56)nn4)ccc3cc1O2 (centres undefined),,,,,,,,,16,16,,,
COc1ccc(C2C3=C(CC(C)(C)CC3=O)Oc3cc4ccc(OCc5cn(-c6ccnc7cc(Cl)ccc67)nn5)cc4cc32)cc1OC (centres undefined),,,,,,,,,16,16,,,
Cc1c(C(=O)N/N=C/c2ccc(O)cc2)nnn1-c1cc(C(F)(F)F)nc2c(C(F)(F)F)cccc12,6.25,6.25,6.25,6.25,6.25,6.25,6.25,6.25,,,,,
CC(C)C[C@H](NC(=O)CNC(=O)C(C)(C)NC(=O)[C@@H](NC(=O)C(C)(C)NC(=O)[C@H](CCC(N)=O)NC(=O)[C@H](C)NC(=O)C(C)(C)NC(=O)[C@H](C)NC(=O)C(C)(C)NC(=O)[C@@H]1CCN(C(=O)C(C)(C)n2cc(-c3cc4ccccc4c4ccccc34)nn2)C1)C(C)C)C(=O)NC(C)(C)C(=O)N1CCC[C@@H]1C(=O)N[C@H](C(=O)NC(C)(C)C(=O)NC(C)(C)C(=O)N[C@@H](CCC(N)=O)C(=O)N[C@@H](CCC(N)=O)C(=O)N[C@H](CO)Cc1ccccc1)C(C)C,,,,,,,,,,,1.56,1.56,2.9
Cc1c(C(=O)N/N=C/c2ccc(-c3ccccc3)cc2)nnn1-c1cc(C(F)(F)F)nc2c(C(F)(F)F)cccc12,6.25,6.25,6.25,6.25,6.25,6.25,6.25,6.25,,,,,
